Test results taken from patent US20050042751A1, “Generation and use of new types of dendritic cells” (priority 2001, published 2005).

Assays:
Assay type in all cases: cell-based, human
[1] = tested on: γδ T cells; assay: TNF-α and IFN-γ production by γδ T cells (ELISA)
Description: γδ T cells (7.5 10^5 cells/500 μl) were either cultured in medium alone or stimulated with BrHpp (200 nM). After 48 h, culture supernatants were assayed by ELISA for TNF-α and IFN-γ levels.
For γδ T cell isolation, cells expressing γ-δ receptors on their membrane were positively selected using immunomagnetic depletion (Miltenyi Sanvertech, Belgium). Briefly, non-adherent PBMC containing 2 to 5% of γδ T cells were incubated with biotin-conjugated anti-γδ T cell receptor (TCR) antibodies for 15 min at 4° C., washed three times, and then incubated with immunomagnetic beads coated with streptavidin.
Cell culture conditions. γδ T cells (7.5 10^5 cells/500 μl) were cultured for 24 h in flat-bottomed 24-well plates in culture medium supplemented or not with BrHpp (200 nM). Autologous DC (10^6 cells/500 μl) were added to γδ T cell cultures for another 24 h and analyzed for the expression of surface markers and for their ability to release cytokines. In parallel, DC (10^6 cells/ml) were cultured for 24 h in 24-well plates either in medium alone, or in presence of BrHpp (100 nM). […] In parallel, DC and γδ T cells were cocultured in a transwell culture system (Costar, Belgium).
(§1) Determination of cytokine levels. TNF-α, IL-12 p-40 and IFN-γ levels in culture supernatants were determined by ELISA kits from Biosource. IL-12 p70 levels were measured using the Endogen Elisa kit (Endogen, Belgium).

[2] = tested on: monocyte-derived DC; assay: Phenotypic changes of DC upon coculture with γδ T cells (flow cytometry)
Description: DC cultures were cultured for 24 alone, in the presence of BrHpp (200 nM) only, or with γδ T cells activated by BrHpp as described in example 1. Neutralizing anti-TNF or anti-IFNγ Ab was added at a concentration of 20 and 15 μg/ml, respectively. The expression of HLA-DR, CD86, and CD83 on DC was measured by flow cytometry and expressed as means+/−SEM of mean fluorescence intensity in five independent experiments on different healty donors. • ^1 p<0.05 compared to DC cultured alone or with BrHpp only. • ^2 p<0.05 compared to DC cultured with activated γδ T cells in absence of mAb.
Purification of γδ T cells and DC generation. Peripheral blood mononuclear cells (PBMC) from healthy volunteers were isolated by density centrifugation of heparinized blood on Lymphoprep (Nycomed, Oslo, Norway), washed with HBSS, resuspended in culture medium and allowed to adhere In culture flasks for 2 h at 37° C. Non-adherent cells were removed and adherent monocytes were cultured during 6 days in presence of 500 U/ml granulocyte macrophage colony-stimulating factor (GM-CSF) (Leucomax, Schering-Plough Kenilworth, N.J.) and 800 U/ml of IL-4 (Cellgenix, Freiburg, Germany). The resulting cell preparation routinely contained >90% DC as assessed by morphology and FACS analysis.
(§2) Cell culture conditions. γδ T cells (7.5 10^5 cells/500 μl) were cultured for 24 h in flat-bottomed 24-well plates in culture medium supplemented or not with BrHpp (200 nM). Autologous DC (10^6 cells/500 μl) were added to γδ T cell cultures for another 24 h and analyzed for the expression of surface markers and for their ability to release cytokines. In parallel, DC (10^6 cells/ml) were cultured for 24 h in 24-well plates either in medium alone, or in presence of BrHpp (100 nM). In some experiments, anti-TNF-α (20 μg/ml) or anti-IFN-γ (15 μg/ml) neutralizing monoclonal antibody (mAb) or their isotypic control used at similar concentration (Biosource Fleurus, Belgium) were added to DC-γδ T cell cocultures. In parallel, DC and γδ T cells were cocultured in a transwell culture system (Costar, Belgium).
Immunophenotyping by flow cytometry. Monocyte-derived DC were stained using PE-labeled specific mAb HLA-DR, CD86, CD83 (Beckton-Dickinson, Mountain view, CA). FITC-conjugated anti-TCR γδ mAb (Becton-Dickinson, San Jose, Calif.) was used to assess γδ T cell purity and to exclude them in flow cytometry analysis of DC in DC-γδ T cell cocultures. Briefly, 5×10^5 cells were incubated with the relevant mAbs or their isotype-matched controls for 20 min at 4° C., washed and fluorescence intensity was analyzed using a FACS-Calibur (Becton-Dickinson).

[3] = tested on: monocyte-derived DC; assay: IL-12 production by DC in DC-γδ T cell cocultures (ELISA)
Description: FIG. 3: γδ T cells induce IL-12 production by DC. Monocyte-derived DC were cocultured alone or in the presence of BrHpp only or cocultured with unstimulated or BrHpp-activated γδ T in absence or presence of either anti-TNF-α, anti-IFN-γ neutralizing mAbs or both. After 24 h of culture, supernatants were assayed for IL12-p40 and p70 levels by ELISA. Results were expressed as mean±SEM of 6 independent experiments. • * p<0.05 compared to DC cultured in medium alone or containing BrHpp • ** p<0.05 compared to DC stimulated with BrHPP-activated γδ T cells in the absence of mAb.
as §2, §1

[4] = γδ T cells 7.5 10^5 cells/500 μl, BrHpp 200 nM, 48 h, culture supernatant, mean±SEM of 13 experiments
[5] = DC cultured 24 h with BrHpp (200 nM) only, mean+/-SEM, 5 experiments

Structure (SMILES): CC(O)(CBr)CCOP(=O)(O)OP(=O)(O)O (centres unmarked) [BrHpp, bromohydrin pyrophosphate]
- effect on IFN-γ secretion by γδ T cells ([1]; text statement on table 1): induced
- effect on basal production of TNF-α by γδ T cells ([1]; text statement on table 1): further increased
- IFN-γ [1, 4]: 452 ± 76^1 pg/ml
- TNF-α [1, 4]: 17406 ± 1290^1 pg/ml
- CD83 expression on DC (mean fluorescence intensity) [2, 5]: 69 +/− 14
- CD86 expression on DC (mean fluorescence intensity) [2, 5]: 308 +/− 205
- HLA DR expression on DC (mean fluorescence intensity) [2, 5]: 610 +/− 354
- effect of preactivation of γδT cells on upregulation of HLA-DR, CD86 and CD83 on DC ([2]; γδT cells preactivated with BrHpp versus not preactivated): did not result in a further increase
- effect on IL-12 production by DC ([3]; DC cultured in absence of γδ T cells): no effect
- induction of IL-12 (p70) synthesis ([3]; DC-γδ T cell coculture in the presence of BrHpp): detected
- increase in IL-12 (p40) levels ([3]; DC-γδ T cell coculture in the presence of BrHpp versus without BrHpp): 3 fold
